Data as given in ChEMBL document CHEMBL1201862, “PubChem BioAssay data set” (2004).
Where “and” joins values, the source holds several entries; their conditions need not be identical. Equal entries are not always repeated. Calls of active or inactive are those of the source.

How the values were obtained:
[1] = target: T1, Cytochrome P450 1A2 (Homo sapiens, UniProt P05177);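 further: PubChem cytochrome P450 panel assay, CYP1A2 panel member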
T1 sequence (P05177 whole entry): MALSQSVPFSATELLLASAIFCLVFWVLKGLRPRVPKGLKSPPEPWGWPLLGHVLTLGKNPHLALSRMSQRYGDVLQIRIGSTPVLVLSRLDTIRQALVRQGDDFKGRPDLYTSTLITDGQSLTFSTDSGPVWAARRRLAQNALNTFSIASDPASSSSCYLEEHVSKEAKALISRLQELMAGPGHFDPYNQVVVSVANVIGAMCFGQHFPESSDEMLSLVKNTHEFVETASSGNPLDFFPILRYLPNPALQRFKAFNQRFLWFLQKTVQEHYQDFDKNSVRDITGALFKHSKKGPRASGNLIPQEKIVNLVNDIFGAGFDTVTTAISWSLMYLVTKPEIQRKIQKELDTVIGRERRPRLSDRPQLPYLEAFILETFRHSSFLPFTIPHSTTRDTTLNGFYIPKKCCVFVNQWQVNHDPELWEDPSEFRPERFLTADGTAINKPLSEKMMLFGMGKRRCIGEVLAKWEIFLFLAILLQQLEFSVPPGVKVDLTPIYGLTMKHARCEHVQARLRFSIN

[2] = target: Cytochrome P450 2C9 (Homo sapiens, UniProt P11712)
Chain of Cytochrome P450 2C9 (P11712 whole entry): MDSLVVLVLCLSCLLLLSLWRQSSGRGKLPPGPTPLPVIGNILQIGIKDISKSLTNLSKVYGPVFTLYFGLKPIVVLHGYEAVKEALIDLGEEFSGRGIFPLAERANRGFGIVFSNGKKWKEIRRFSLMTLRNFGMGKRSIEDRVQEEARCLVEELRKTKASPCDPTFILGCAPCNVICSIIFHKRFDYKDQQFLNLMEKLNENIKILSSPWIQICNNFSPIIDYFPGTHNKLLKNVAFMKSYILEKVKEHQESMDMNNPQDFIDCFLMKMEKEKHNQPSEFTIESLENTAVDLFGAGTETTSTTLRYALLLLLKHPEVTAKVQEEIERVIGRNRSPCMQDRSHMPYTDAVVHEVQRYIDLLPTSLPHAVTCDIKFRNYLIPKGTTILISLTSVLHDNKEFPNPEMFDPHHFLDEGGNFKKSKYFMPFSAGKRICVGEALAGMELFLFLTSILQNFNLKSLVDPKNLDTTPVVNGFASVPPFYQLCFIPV

[3] = target: Cytochrome P450 3A4 (Homo sapiens, UniProt P08684);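 further: CYP3A4 tested as one member of a cytochrome P450 panel screen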
Chain of Cytochrome P450 3A4 (P08684 whole entry): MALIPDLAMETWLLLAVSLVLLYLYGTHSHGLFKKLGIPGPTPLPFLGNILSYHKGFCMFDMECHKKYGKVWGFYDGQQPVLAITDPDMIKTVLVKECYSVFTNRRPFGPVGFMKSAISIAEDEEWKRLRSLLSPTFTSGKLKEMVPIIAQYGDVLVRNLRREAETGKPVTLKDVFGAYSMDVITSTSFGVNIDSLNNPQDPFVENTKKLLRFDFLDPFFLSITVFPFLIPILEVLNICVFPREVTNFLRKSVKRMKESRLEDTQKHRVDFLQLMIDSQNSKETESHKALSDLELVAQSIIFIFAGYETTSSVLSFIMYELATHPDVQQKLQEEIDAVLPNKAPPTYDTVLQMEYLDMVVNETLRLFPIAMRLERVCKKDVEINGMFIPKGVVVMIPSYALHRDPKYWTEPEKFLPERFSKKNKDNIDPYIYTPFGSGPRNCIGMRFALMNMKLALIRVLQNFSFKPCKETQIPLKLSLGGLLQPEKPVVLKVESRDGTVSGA

[4] = target: T2, Corticotropin-releasing factor receptor 2/Corticotropin-releasing factor-binding protein (Homo sapiens, UniProt P24387+Q13324); experiment: activators of CRF receptor 2 with binding protein – uHTS hits, confirmation (AID 602473); format: functional; details: read-out: EC50_Mean
T2 sequence (Q13324 whole entry): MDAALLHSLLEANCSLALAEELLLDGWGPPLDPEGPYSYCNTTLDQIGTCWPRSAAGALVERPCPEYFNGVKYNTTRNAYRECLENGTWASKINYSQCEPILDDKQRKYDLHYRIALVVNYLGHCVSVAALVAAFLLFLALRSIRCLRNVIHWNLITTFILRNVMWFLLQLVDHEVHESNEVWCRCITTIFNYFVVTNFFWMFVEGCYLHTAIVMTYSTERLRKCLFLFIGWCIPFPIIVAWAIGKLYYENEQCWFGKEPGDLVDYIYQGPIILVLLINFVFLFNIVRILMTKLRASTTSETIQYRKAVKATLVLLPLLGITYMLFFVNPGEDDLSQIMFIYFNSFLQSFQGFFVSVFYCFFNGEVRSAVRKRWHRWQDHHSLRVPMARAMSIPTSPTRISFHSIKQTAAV
T2 sequence (P24387 whole entry): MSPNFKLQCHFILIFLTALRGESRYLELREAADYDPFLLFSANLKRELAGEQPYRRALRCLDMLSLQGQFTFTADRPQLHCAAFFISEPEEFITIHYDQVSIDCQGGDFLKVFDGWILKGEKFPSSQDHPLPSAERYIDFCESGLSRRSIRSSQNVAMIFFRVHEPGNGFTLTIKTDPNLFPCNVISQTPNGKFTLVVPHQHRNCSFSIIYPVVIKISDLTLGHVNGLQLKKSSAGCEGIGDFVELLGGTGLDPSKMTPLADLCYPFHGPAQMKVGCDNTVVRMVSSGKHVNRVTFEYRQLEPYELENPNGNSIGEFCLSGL

[5] = inhibitors of intracellular T. cruzi replication, confirmation, NIH3T3 host cells, beta-gal luminescence (AID 2044); format: functional, cell-based;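 further: intracellular parasites grown in NIH/3T3 mouse fibroblasts as host cells; luminescent beta-galactosidase reporter signal from transgenic T. cruzi replicating inside host cells; inhibitors lower the luminescence signal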
[6] = cytotoxicity toward NIH3T3 fibroblasts, dose response, counter-screen, cell-based, ATP luminescence, mouse fibroblasts (AID 2010); format: functional;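 further: cells exposed to compound for about 90 hours before reading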
[7] = test system: Streptococcus; experiment: Group A Streptococcus viability loss, dose response, counter-screen for streptokinase expression inhibitor project, luminescence, BacTiterGlo (AID 1915); format: functional, organism-based;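 further: potency for reduction of bacterial viability or growth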
[8] = test system: Streptococcus sp. 'group A'; experiment: growth inhibition of control SK(-) GAS strain, dose response, counter-screen for streptokinase expression inhibitor project, luminescence, kanamycin, BacTiterGlo, confirmation (AID 1900); format: functional, organism-based

O[C@H](CCCN1CCN(c2ncc(F)cn2)CC1)c1ccc(F)cc1
AC50 [1]: 31.6 µM (inconclusive) | AC50 [2]: 12.6 µM (inconclusive)

COc1ccccc1CN1CC[C@@]2(CCCN(C(=O)c3ccco3)C2)C1
AC50 [1]: 39.8 µM (inconclusive)

COc1cccc(-c2cncnc2NCCN2CCOCC2)c1
AC50 [3]: 3.16 µM (inconclusive) | AC50 [1]: 15.8 µM (inconclusive)

Cc1noc(C)c1-c1ccc2ncnc(NC3CCNCC3)c2c1
AC50 [1]: 31.6 µM (inconclusive)

O=C1S/C(=C/c2ccc(N3CCOCC3)o2)C(=O)N1Cc1ccc(F)cc1
EC50 [4]: 5.79 µM (active) | AC50 [3]: 7.94 µM (inconclusive)

CC(C)N1CCc2c(sc(NC(=O)CCc3ccccc3)c2C(N)=O)C1
EC50 [4]: > 53 µM (inactive)

CCN(CC)c1ccc(N2C(=O)/C(=C\c3cccnc3)SC2=S)cc1
AC50 [1]: 1.41 µM (inconclusive)

Cc1ccccc1-c1nc(NC2CCNCC2)c2ccccc2n1
AC50 [1]: 20 µM (inconclusive)

CC(C)N(CCNC(=O)c1nn(Cc2ccccc2)c(=O)c2ccccc12)C(C)C
EC50 [5]: 1.46 µM (active) | EC50 [6]: > 60 µM (not active)

Cc1ccc(S(=O)(=O)O[C@H]2C[C@@H](C(C)(C)C)CC[C@@H]2c2ccccc2)cc1
AC50 [3]: 2 µM (inconclusive)

S=C(Nc1ccc2c(c1)Cc1ccccc1-2)Nc1ccc2c(c1)Cc1ccccc1-2
AC50 [3]: 3.98 µM (inconclusive)

CCC1CCCCN1S(=O)(=O)c1ccc(C(=O)Nc2nnc(C3=COCCO3)o2)cc1 (stereo unspecified)
EC50 [7]: 10.7 µM (active) | EC50 [8]: 4.61 µM (active)

CC1CC(C)CN(CCCNC(=O)C2CCCN(c3nnc(N4CCCC4=O)s3)C2)C1 (stereo unspecified)
AC50 [3]: 28.2 µM (inconclusive)

O=c1c(-c2ccccc2)nc2cnc(Oc3ccccc3)nc2n1Cc1cccs1
AC50 [1]: 2.51 µM (inconclusive) | AC50 [2]: 3.16 µM (inconclusive)

CCOc1cc(-c2nc(-c3cc([N+](=O)[O-])ccc3C)c(-c3ccccc3)[nH]2)ccc1O
EC50 [5]: 2.7 µM (active) | EC50 [6]: > 60 µM (inconclusive)

CC(C(=O)Nc1ccccc1C(=O)O)n1c(C(F)(F)F)nc2ccccc21 (stereo unspecified)
EC50 [5]: 9.95 µM (active) | EC50 [6]: > 60 µM (inconclusive)

CS(=O)(=O)N1CC(C(=O)NC2CC2)Oc2ccc(Cl)cc21 (stereo unspecified)
AC50 [3]: 25.1 µM (inconclusive) | AC50 [2]: 10 µM (inconclusive)

C=CCn1c(NCc2ccccc2)nc2ccccc21
AC50 [3]: 25.1 µM (inconclusive)

O=C(c1cc(-c2ccccc2)nc2ccccc12)N1CCC2(CC1)OCCO2
AC50 [3]: 25.1 µM (inconclusive)

CC(C)(C)C(=O)Nc1sc2c(c1C#N)CCN(Cc1ccccc1)C2
EC50 [4]: 10.2 µM (active)

Cc1ccc(/N=N\c2ccc(N)cc2C)c(S(N)(=O)=O)c1
AC50 [3]: 3.98 µM (inconclusive)

N#Cc1ccc(CN2CCCC3(CCN(C(=O)Oc4ccccc4)CC3)C2)cc1
AC50 [3]: 15.8 µM (inconclusive) | AC50 [2]: 39.8 µM (inconclusive)

CCOC(=O)N1CCN(C(=O)CC(C(=O)N2CCc3ccccc32)n2ccnc2)CC1 (stereo unspecified)
EC50 [5]: 1.82 µM (active) | EC50 [6]: > 60 µM (not active)

Cc1cnc(CNc2ncncc2-c2cccc(NS(C)(=O)=O)c2)cn1
AC50 [1]: 31.6 µM (inconclusive)

O=C(O)CCC(=O)N1CCN(c2ccccn2)CC1
AC50 [3]: 3.55 µM (inconclusive) | AC50 [2]: 0.891 µM (inconclusive)

Cc1cccc(OCCCCCn2ccnc2)c1
EC50 [5]: 0.443 µM (active) | EC50 [6]: > 30 µM (not active)

COc1ccc2c3c([nH]c2c1)C(C)=NCC3
AC50 [3]: 2.51 µM (inconclusive)

CCCCN1C(=O)NC(=O)/C(=C(/C)NCCCN(CC)CC)C1=O
EC50 [5]: 1.66 µM (active) | EC50 [6]: > 60 µM (not active)

COc1ccc(Br)cc1S(=O)(=O)Nc1nc[nH]n1
EC50 [7]: > 150 µM (not active) | EC50 [8]: > 150 µM (not active)

N#Cc1c(Nc2cccc(F)c2)sc2c(O)cc(O)nc12
EC50 [7]: 5.71 µM (active) | EC50 [8]: 1.19 µM (active)

O=C(Nc1ccccc1)Nc1ccccc1-n1ccnc1
EC50 [5]: 2.53 µM (active) | EC50 [6]: > 60 µM (not active)

COc1ccc(C(=O)c2ccc(N3CCN(C(=O)c4ccc(F)cc4)CC3)c(F)c2)cc1Br
EC50 [5]: 2.37 µM (active) | EC50 [6]: 8.95 µM (active)

C=CCSc1nnc(NC(=O)COc2ccc3ccccc3c2)s1
AC50 [2]: 8.91 µM (inconclusive)

N#Cc1cc(C(=O)c2ccccc2O)cn(-c2ccc(Cl)cc2)c1=O
EC50 [4]: > 53 µM (inactive)

Cc1ccc2nc(NC(=O)C3CCN(S(=O)(=O)c4cc([N+](=O)[O-])ccc4Cl)CC3)sc2c1
EC50 [5]: 0.528 µM (active) | EC50 [6]: > 60 µM (not active)

COc1ccc(-c2[nH]nc(C)c2-c2ccc(Cl)cc2)c(O)c1
EC50 [7]: 11.1 µM (active) | EC50 [8]: 9.86 µM (active)

CCN(CC)P(=O)(Nc1ccc(SC(F)F)cc1)c1ccc(N(C)C)cc1NC(=O)c1ccco1 (stereo unspecified)
EC50 [5]: 1.99 µM (active) | EC50 [6]: > 60 µM (not active)

COc1ccccc1-c1cncnc1N1CCN(C)CC1
AC50 [1]: 12.6 µM (inconclusive)

O=C(c1ccc2c(=O)n(CC3CCCO3)c(=S)[nH]c2c1)N1CCN(c2ccccc2)CC1 (stereo unspecified)
AC50 [3]: 7.08 µM (inconclusive) | AC50 [2]: 7.94 µM (inconclusive)

CC(C)(C)NS(=O)(=O)c1ccc(NS(=O)(=O)c2ccc(F)cc2)cc1
AC50 [3]: 15.8 µM (inconclusive)

COc1ccc(OC)c(Nc2nc(-c3sc(NC(=O)c4ccccc4)nc3C)cs2)c1
AC50 [3]: 28.2 µM (inconclusive)

CCN1CCc2c(sc(NC(=S)NC(=O)c3ccccc3)c2C#N)C1
AC50 [3]: 20 µM (inconclusive) | AC50 [1]: 14.1 µM (inconclusive)

CC(C)CN1CCC2(CC1)CCN(C(=O)c1cc(C(F)(F)F)cc(C(F)(F)F)c1)CC2
AC50 [2]: 12.6 µM (inconclusive)

Cc1noc(N)c1C(=O)Nc1ccc(F)cc1
AC50 [2]: 3.98 µM (inconclusive)

CCc1ccc(OCCOCC(O)CNC(C)(C)C)cc1 (stereo unspecified)
EC50 [4]: > 53 µM (inactive)

Cc1onc(C(=O)/C=C/N(C)C)c1C(=O)Nc1nccs1
AC50 [1]: 0.631 µM (inconclusive)

CC1(C)CSC(NCc2ccccc2)=N1
EC50 [4]: 2.84 µM (active)

Cn1ncc(C#N)c1NC(=O)C1CC(c2ccc(Cl)cc2)=NO1 (stereo unspecified)
AC50 [3]: 20 µM (inconclusive) | AC50 [1]: 31.6 µM (inconclusive) | AC50 [2]: 12.6 µM (inconclusive)

Cn1cnc([N+](=O)[O-])c1Sc1nc(N)nc2c1ncn2Cc1ccccc1
AC50 [1]: 3.16 µM (inconclusive)

COc1ccc(C(=O)NC2CCN(C(S)=Nc3cccc(C)c3)CC2)cc1
AC50 [2]: 25.1 µM (inconclusive)

O=C(NCCCN1CCc2ccccc2C1)C1CCN(S(=O)(=O)N2CCCC2)CC1
AC50 [3]: 20 µM (inconclusive)

CCOC(=O)CC(NC(=O)c1ccc(C)cc1)c1ccc(C)cc1 (stereo unspecified)
AC50 [3]: 25.1 µM (inconclusive)

O=C(Nc1cccnc1Cl)C1c2ccccc2Oc2ccccc21
AC50 [3]: 14.1 µM (inconclusive) | AC50 [1]: 3.16 µM (inconclusive)

CC(C)C[C@H]1CN=C(Nc2ccccc2)N1CCc1cccc(F)c1
EC50 [4]: 6.43 µM (active)

N[C@H](Cc1ccc(N(CCCl)CCCl)cc1)C(=O)O
AC50 [1]: 15.8 µM (inconclusive)

Cc1ccc(/C=N\NC(=O)c2ccc(Cn3cc(Br)c([N+](=O)[O-])n3)o2)o1
EC50 [5]: 0.878 µM (active) | EC50 [6]: > 60 µM (not active)

C/C(=N/NC(=O)c1ccc(C)s1)c1cccc(NC(=O)COc2ccc(Cl)cc2C)c1
AC50 [3]: 1.12 µM (inconclusive)

NNS(=O)(=O)c1cc(C(=O)O)cc(C(=O)O)c1
AC50 [1]: 0.001 µM (inconclusive)

N[C@H](CCCP(=O)(O)O)C(=O)O
AC50 [1]: 25.1 µM (inconclusive) and 31.6 µM (inconclusive)
